We go through five substances from patent US20250277030A1, “ANTI-NAPI2B ANTIBODIES AND METHODS OF USE” (Zymeworks BC Inc., priority 2022, published 2025).

Assay [1] has as its target T1, human NaPi2b (Homo sapiens, UniProt O95436).
T1 construct: host or cells: HEK293-6e
T1 sequence (O95436 1-690): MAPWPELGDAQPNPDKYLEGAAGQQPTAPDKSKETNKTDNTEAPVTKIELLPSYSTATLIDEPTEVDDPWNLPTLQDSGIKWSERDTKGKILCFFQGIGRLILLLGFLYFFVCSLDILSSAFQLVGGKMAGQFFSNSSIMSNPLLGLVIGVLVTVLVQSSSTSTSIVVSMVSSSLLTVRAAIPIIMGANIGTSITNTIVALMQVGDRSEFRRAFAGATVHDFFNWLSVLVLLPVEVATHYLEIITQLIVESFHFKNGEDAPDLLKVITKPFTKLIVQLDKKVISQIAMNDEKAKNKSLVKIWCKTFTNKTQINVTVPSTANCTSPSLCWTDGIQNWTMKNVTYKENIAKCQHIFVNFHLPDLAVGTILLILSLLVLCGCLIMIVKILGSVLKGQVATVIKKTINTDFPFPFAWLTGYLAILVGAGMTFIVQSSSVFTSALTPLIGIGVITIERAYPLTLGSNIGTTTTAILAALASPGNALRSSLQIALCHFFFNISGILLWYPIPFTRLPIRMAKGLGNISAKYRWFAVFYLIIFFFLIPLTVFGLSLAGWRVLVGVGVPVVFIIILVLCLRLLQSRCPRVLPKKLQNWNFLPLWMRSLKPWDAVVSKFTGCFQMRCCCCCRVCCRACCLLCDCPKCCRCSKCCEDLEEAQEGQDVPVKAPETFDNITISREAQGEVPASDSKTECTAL
The assay can be described thus: Competition binding (epitope binning) by flow cytometry on HEK293-6e cells expressing human NaPi2b. To be noted: unlabeled competitor antibody 100 μg/mL, GFP- population. The procedure: Binding was assessed by flow cytometry using HEK293-6e cells as described below.
HEK293-6e cells were transfected for ˜24 hours to transiently express human NaPi2b (1 μg of pTT5-NaPi2b per 1 million cells) or transfected with GFP (ATUM, Menlo Park, CA; pD2610-v23, also 1 μg of DNA per 1 million cells). Following transfection, human NaPi2b-expressing HEK296-6e cells and transfected GFP-expressing HEK296-6e cells were mixed at 4:1 ratio. Each well of a V-bottom 96-well plate was seeded with 100,000 cells of the mixture and incubated with 100 μg/mL of unlabeled competitor anti-NaPi2b antibody for an hour on ice. Post incubation, cells were washed and stained with 1 μg/mL of AF647-conjugated anti-NaPi2b detection antibodies for an hour on ice. Following staining and washing, fluorescence was detected by flow cytometry on a BD LSRFortessa™ Cell Analyzer (BD Biosciences, Franklin Lake, NJ) with 10,000 minimum events collected per well. The AF647/APC-A GeoMean (fluorescence signal geometric mean, proportional to anti-Human AF647 binding) was calculated for the FITC/GFP negative live cell population and using FlowJo™ Version 10.8.1 (BD Biosciences, Franklin Lake, NJ). Percentage inhibition was calculated using the following formula: […]
(In general: In flow cytometry, cells or beads pass a laser one at a time.)

Assay [2] deals with cynomolgus NaPi2b. In words: Flow cytometry binding to HEK293-6e cells transfected with cynomolgus NaPi2b (Example 5). To be noted: transfected HEK293-6e cells, 18-24 hours at 4° C. The procedure: The binding cross-reactivity of humanized antibody variant v29456 to human, cynomolgus and mouse NaPi2b was assessed by flow cytometry using HEK293-6e transfected cells.
cynomolgus NaPi2b, sequence (as listed by the source): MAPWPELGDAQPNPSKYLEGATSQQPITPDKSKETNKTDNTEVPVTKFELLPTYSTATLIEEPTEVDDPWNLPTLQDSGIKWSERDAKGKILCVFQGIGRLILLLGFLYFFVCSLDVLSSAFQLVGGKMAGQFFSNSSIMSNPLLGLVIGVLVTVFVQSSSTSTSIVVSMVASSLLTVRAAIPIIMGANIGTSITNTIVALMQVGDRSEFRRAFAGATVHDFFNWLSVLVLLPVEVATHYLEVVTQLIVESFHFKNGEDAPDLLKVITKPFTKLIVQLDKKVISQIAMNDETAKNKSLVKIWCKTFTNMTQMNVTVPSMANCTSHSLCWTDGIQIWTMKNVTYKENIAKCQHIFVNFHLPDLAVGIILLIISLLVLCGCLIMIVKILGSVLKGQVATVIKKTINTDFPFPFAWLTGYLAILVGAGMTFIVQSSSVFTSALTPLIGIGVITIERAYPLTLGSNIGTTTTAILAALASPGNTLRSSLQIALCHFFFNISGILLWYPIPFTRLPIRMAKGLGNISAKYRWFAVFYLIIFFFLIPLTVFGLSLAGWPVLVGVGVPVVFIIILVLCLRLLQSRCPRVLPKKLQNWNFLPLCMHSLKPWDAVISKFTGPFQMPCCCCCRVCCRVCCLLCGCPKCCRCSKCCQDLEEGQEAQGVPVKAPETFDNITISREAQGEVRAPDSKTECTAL
Briefly, HEK293-6e cells were transfected for ˜24 hours to transiently express human NaPi2b, cynomolgus or mouse NaPi2b, at 1 μg of DNA per 1 million cells. Following transfection, 50,000 cells per well were seeded in V-bottom 96-well plates and incubated with 200 nM of primary antibody for 18-24 hours at 4° C. to prevent internalization. Post-incubation, cells were washed and stained with anti-Human IgG Fc AF647 conjugate (Jackson Immuno Research Labs, West Grove, PA, Cat. No. 109-605-098, Lot. No. 124868) at 4° C. for 1 hour. Following staining and washing, fluorescence was detected by flow cytometry on BD LSRFortessa™ Cell Analyzer (BD Biosciences, Franklin Lake, NJ) with 10,000 minimum events collected per well. The AF647/APC-A GeoMean (fluorescence signal geometric mean, proportional to anti-Human AF647 binding) was calculated for the live singlet cell population for each primary antibody using FlowJo™ v8 software (BD Biosciences, Franklin Lake, NJ). The Bmax and Kd of each primary antibody were calculated using GraphPad Prism Version 9 (GraphPad Software, San Diego, CA)

Assay [3] deals with HCC-78 cells. In words: In vitro cytotoxicity, 2D monolayer, CellTiter-Glo, HCC-78. It is filed as cell-based, human. To be noted: HCC-78, 4 days. The procedure: (§1) The cytotoxicity as measured by cell growth inhibition of the humanized variant v29456 (H1L2) conjugated to various drug-linkers were assessed in a panel of NaPi2b-expressing cell lines as described below. Cell lines used were OVCAR-3 (ovarian carcinoma), IGROV-1 (ovarian carcinoma), and HCC-78 (lung carcinoma). ADCs with antibody palivizumab (anti-RSV) (v22277) were used as non-targeted controls.
(§2) OVCAR-3 were cultured in RPMI 1640 Medium, ATCC modification (Thermo Fisher Scientific, Waltham, MA) supplemented with 20% fetal bovine serum (FBS) (Thermo Fisher Scientific, Waltham, MA) and 0.01 μg/mL human insulin (Sigma-Aldrich, Oakville, ON). […] After incubation, CellTiter-Glo® reagent (Promega Corporation, Madison, WI) was added in all wells and luminescence corresponding to ATP present in each well was measured using a Synergy™H1 plate reader (BioTek Instruments, Winooski, VT). Percent cytotoxicity values were calculated by the following formula: (1−(Luminescence of Treated Cells/Average Luminescence of Untreated Cells))×100, and plotted against test article concentration using GraphPad Prism 9 software (GraphPad Software, San Diego, CA). EC50 values were calculated based on a non-linear regression log(agonist) versus response, variable slope (four parameters) by GraphPad Prism 9.
On the technique in general: Cellular ATP, detected with luciferase, serves as a proxy for viable cell number.

Assay [4] deals with OVCAR-3 cells. In words: In vitro cytotoxicity, 2D monolayer, CellTiter-Glo, OVCAR-3. It is filed as cell-based, human. The note with it: OVCAR-3, 4 days; IC = Incomplete Curve. The procedure:
as §1, §2

Assay [5] has as its system IGROV-1 cells. The assay can be described thus: In vitro cytotoxicity, 2D monolayer, CellTiter-Glo, IGROV-1. It is filed as cell-based, human. The note with it: IGROV-1, 4 days. The procedure: as §1, §2

Regarding “v16955: Palivizumab (anti-RSV), negative control antibody in the competition binding”, the “% Inhibition vs. irrelevant mAb, labeled detection antibody v16955 (negative control)” value in assay [1] (labeled detection antibody v16955 1 μg/mL) is listed as 0%. Besides, the “% Inhibition vs. irrelevant mAb, labeled detection antibody v18992 (MX35)” value in assay [1] (labeled detection antibody v18992 1 μg/mL) was 0%. Besides, in assay [1] (labeled detection antibody v18993 1 μg/mL), the “% Inhibition vs. irrelevant mAb, labeled detection antibody v18993 (lifastuzumab)” value is given as 0%. Besides, in assay [1] (labeled detection antibody v23855 1 μg/mL), the “% Inhibition vs. irrelevant mAb, labeled detection antibody v23855” value amounted to 0%.
With “v18992: anti-NaPi2b reference humanized antibody MX35 [reference compound]”, the “Bmax (APC-A GeoMean), Cyno NaPi2b” value in assay [2] is given as 2,365 APC-A GeoMean.
On the same count and under the same terms, the result for “v18993: anti-NaPi2b reference humanized antibody lifastuzumab [reference compound]” reads 1,557 APC-A GeoMean.
As for “v22277-DL1: non-targeted control ADC of palivizumab v22277 with MC-GGFG-AM-DXd1 (DL1), DAR 8”, the EC50 in assay [3], in assay [4] and in assay [5] was > 0.05 µM throughout.
As for “v22277-DL3: non-targeted control ADC of palivizumab v22277 with MC-VC-PABC-MMAE (DL3), DAR 4”, the EC50 in assay [3] came out at 0.0114 µM; in assay [4], 0.0094 µM; in assay [5] it was 0.00702 µM.

As a reminder, the EC50 is the concentration needed to bring the measured effect to its halfway point.
